Laboratory results taken from US9169241B2, “Quinolinyloxyphenylsulfonamides” (Max-Planck-Gesellschaft Zur Forderung der Wissenschaften …, priority 2009, dated 2015).
Read-outs that look alike come from different tables or passages of the source.

Legend:
tumor cell = test: Matrigel outgrowth assay/branching assay (Table Va); assay type: cell-based
Method in brief: (§1)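 Invasive outgrowth into a 3 mg/ml Matrigel gel is judged from images taken after 48, 72 and 96 h of exposure to 3.125, 1.56 or 0.78 μM compound, with DMSO as control. Positive means total inhibition of branching.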

cells = test: Boyden chamber migration assay (Table VI); assay type: cell-based; settings: Homo sapiens, Hs-578T, 16 h, Hs578T cells; 16 h migration
Method in brief: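 Migration read-out is a count of fixed cells on the underside of an […] insert membrane after 16 h. Chemoattractant was medium with 10% FCS in the lower chamber; 20000 cells started in serum-free medium with 0.1% BSA above, and those left on top were removed by swab.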

Hs578T [1] = test: Matrigel outgrowth assay/branching assay; assay type: cell-based; settings: Homo sapiens, Hs-578T; HS578T cell line; Table Ib; read-out: Total branching inhibition in Matrigel HS578T
Method in brief: as §1

SF126 = test: Apoptosis assay (Cellomics, nucleus condensation); assay type: cell-based; settings: Homo sapiens, SF-126, Table III, read-out: Apoptosis induction in SF126
Method in brief: (§2)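 Readout: per-nucleus Hoechst 33342 fluorescence intensity and its population variation, plus number of detected cells, by automated CCD imaging. Live cells, 5000/well; compound 0.39–12.5 μM (twofold series) vs DMSO, read at 24 h and 48 h.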

U138 = test: Apoptosis assay (Cellomics, nucleus condensation); assay type: cell-based; settings: Table III, read-out: Apoptosis induction in U138
Method in brief: as §2

C8161 = test: Apoptosis assay (Cellomics, nucleus condensation); assay type: cell-based; settings: Homo sapiens, Table III, read-out: Apoptosis induction in C8161
Method in brief: as §2

U118 = test: Apoptosis assay (Cellomics, nucleus condensation); assay type: cell-based; settings: Table III, read-out: Apoptosis induction in U118
Method in brief: as §2

SF763 = test: Apoptosis assay (Cellomics, nucleus condensation); assay type: cell-based; settings: Table III, read-out: Apoptosis induction in SF763
Method in brief: as §2

Hs578T [2] = test: Apoptosis assay (Cellomics, nucleus condensation); assay type: cell-based; settings: Homo sapiens, Hs-578T, Table III, read-out: Apoptosis induction in Hs578T
Method in brief: as §2

indicated cell line = test: Wound healing migration assay (Table IV); assay type: cell-based; settings: compounds at 12.5, 6.25, 3.125 μM, 48 h-72 h
Method in brief: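 Compound exposure at 12.5, 6.25 and 3.125 μM, with DMSO control, on scratch-wounded monolayers (150000 cells/24 well, overnight). Wound closure imaged by microscopy, fixed with crystal violet after 48 h or 72 h depending on cell line; IC50 is the concentration giving 50% wound size between t0 and t48/t72.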

viable cells in culture = test: Cell viability assay at 10 μM (CellTiter-Glo, Table VII); assay type: cell-based; settings: compound 10 μM, 72 h;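 further: graded A 0-20%; B 21-40%; C 41-60%; D over 60% viable cells relative to DMSO control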
Method in brief: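 Cells were seeded at 1000 cells/well in 96-well plates in 100 μl culture medium and incubated for 72 h with 10 μM compound or a DMSO control. ATP content, which reflects metabolically active and therefore viable cells, was then determined by CellTiter-Glo luminescence (Promega) per the manufacturer's instructions and expressed relative to the DMSO control.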

[3] = Homo sapiens, C8161 cells, read-out: Total branching inhibition in Matrigel C8161
[4] = Homo sapiens, Hs-578T, Hs578T cells, read-out: Total branching inhibition in Matrigel Hs578T
[5] = U118 cells, read-out: Total branching inhibition in Matrigel U118
[6] = U138 cells, read-out: Total branching inhibition in Matrigel U138
[7] = Homo sapiens, C8161 cells, read-out: IC50 Wound healing Assay C8161
[8] = SF763 cells, read-out: IC50 Wound healing Assay SF763
[9] = Homo sapiens, HCT-116, HCT116 def, read-out: percentage (%) of viable cells HCT 116def
[10] = Homo sapiens, HCT-116, HCT116 wt, read-out: percentage (%) of viable cells HCT 116wt
[11] = Homo sapiens, HT-29, HT29, read-out: percentage (%) of viable cells HT29
[12] = Homo sapiens, NCI-H358, H358, read-out: percentage (%) of viable cells H358
[13] = Homo sapiens, NCI-H1650, H1650, read-out: percentage (%) of viable cells H1650
[14] = Homo sapiens, NCI-H1666, H1666, read-out: percentage (%) of viable cells H1666
[15] = Homo sapiens, NCI-H1975, H1975, read-out: percentage (%) of viable cells H1975
[16] = Homo sapiens, NCI-H1993, H1993, read-out: percentage (%) of viable cells H1993
[17] = Homo sapiens, A549, read-out: percentage (%) of viable cells A549
[18] = Homo sapiens, HCC827, read-out: percentage (%) of viable cells HCC827
[19] = Homo sapiens, SW480, read-out: percentage (%) of viable cells SW480
[20] = RKO, read-out: percentage (%) of viable cells RKO

| SMILES | IC50 (tumor cell; [3]) [µM] | IC50 (tumor cell; [4]) [µM] | IC50 (tumor cell; [5]) [µM] | IC50 (tumor cell; [6]) [µM] | IC50 (cells) [µM] | IC50 (Hs578T [1]) [µM] | IC50 (SF126) [µM] | IC50 (U138) [µM] | IC50 (C8161) [µM] | IC50 (U118) [µM] | IC50 (SF763) [µM] | IC50 (Hs578T [2]) [µM] | IC50 (indicated cell line; [7]) [µM] | melting point [°C] | viability at 10 µM (viable cells in culture; [9]) [%] | viability at 10 µM (viable cells in culture; [10]) [%] | viability at 10 µM (viable cells in culture; [11]) [%] | viability at 10 µM (viable cells in culture; [12]) [%] | viability at 10 µM (viable cells in culture; [13]) [%] | viability at 10 µM (viable cells in culture; [14]) [%] | also measured |
| --- | --- | --- | --- | --- | --- | --- | --- | --- | --- | --- | --- | --- | --- | --- | --- | --- | --- | --- | --- | --- | --- |
| COc1cc2c(Oc3ccc(NS(=O)(=O)c4ccc(Cl)cc4F)cc3F)ccnc2cc1OCCCN1CCN(C)CC1 [Example 27, 4-Chloro-2-fluoro-N-(3-fluoro-4-{6-methoxy-7-[3-(4-methyl-piperazin-1-yl)-propoxy]-quinolin-4-yloxy}-phenyl)-benzenesulfonamide] | ≤ 5 | ≤ 5 | ≤ 5 | ≤ 5 | ≤ 5 | ≤ 10 | 12.5 to 50 | ≤ 12.5 | ≤ 12.5 | ≤ 12.5 | ≤ 12.5 | ≤ 12.5 | 12.5 to 50 | 106 to 110 | 0 to 20 | 0 to 20 | 21 to 40 | 0 to 20 | 41 to 60 | 41 to 60 | IC50 (indicated cell line; [8]): ≤ 12.5 µM; viability at 10 µM (viable cells in culture; [15]): 21 to 40%; viability at 10 µM (viable cells in culture; [16]): 0 to 20%; viability at 10 µM (viable cells in culture; [17]): > 60%; viability at 10 µM (viable cells in culture; [18]): > 60%; viability at 10 µM (viable cells in culture; [19]): 0 to 20%; viability at 10 µM (viable cells in culture; [20]): 0 to 20% |
| COc1cc2c(Oc3ccc(NS(=O)(=O)c4ccccc4C)cc3F)ccnc2cc1OCCCN1CCN(C)CC1 [Example 28, N-(3-Fluoro-4-{6-methoxy-7-[3-(4-methyl-piperazin-1-yl)-propoxy]-quinolin-4-yloxy}-phenyl)-2-methyl-benzenesulfonamide] | ≤ 5 | 5 to 50 | ≤ 5 | ≤ 5 | ≤ 5 | 10 to 25 | ≤ 12.5 | ≤ 12.5 | ≤ 12.5 | ≤ 12.5 | ≤ 12.5 | ≤ 12.5 | ≤ 12.5 | 73 to 75 | 21 to 40 | 21 to 40 | 21 to 40 | 0 to 20 | 21 to 40 | 41 to 60 | IC50 (indicated cell line; [8]): ≤ 12.5 µM; viability at 10 µM (viable cells in culture; [15]): 21 to 40%; viability at 10 µM (viable cells in culture; [16]): 21 to 40%; viability at 10 µM (viable cells in culture; [17]): 21 to 40%; viability at 10 µM (viable cells in culture; [18]): 21 to 40%; viability at 10 µM (viable cells in culture; [19]): 0 to 20%; viability at 10 µM (viable cells in culture; [20]): 0 to 20% |
| COc1cc2c(Oc3ccc(NS(=O)(=O)c4cc(Cl)cc(Cl)c4OC)cc3F)ccnc2cc1OCCCN1CCCC(C)C1 (centres unmarked) [Example 75, 3,5-Dichloro-N-(3-fluoro-4-{6-methoxy-7-[3-(3-methyl-piperidin-1-yl)-propoxy]-quinolin-4-yloxy}-phenyl)-2-methoxy-benzenesulfonamide] | ≤ 5 | ≤ 5 | ≤ 5 | 5 to 50 | ≤ 5 | ≤ 10 | ≤ 12.5 | ≤ 12.5 | ≤ 12.5 | ≤ 12.5 | ≤ 12.5 | ≤ 12.5 | 12.5 to 50 | 145 to 146 | 21 to 40 | 21 to 40 | 0 to 20 | 0 to 20 | 21 to 40 | 41 to 60 | viability at 10 µM (viable cells in culture; [15]): 0 to 20%; viability at 10 µM (viable cells in culture; [16]): 21 to 40%; viability at 10 µM (viable cells in culture; [17]): > 60%; viability at 10 µM (viable cells in culture; [18]): > 60%; viability at 10 µM (viable cells in culture; [19]): 0 to 20%; viability at 10 µM (viable cells in culture; [20]): 0 to 20% |
| COc1cc2c(Oc3ccc(NS(=O)(=O)c4cc(F)ccc4F)cc3F)ccnc2cc1OCCCCN1CCOCC1 [Example 83, 2,5-Difluoro-N-{3-fluoro-4-[6-methoxy-7-(4-morpholin-4-yl-butoxy)-quinolin-4-yloxy]-phenyl}-benzenesulfonamide] | ≤ 5 | ≤ 5 | ≤ 5 | ≤ 5 | ≤ 5 | ≤ 10 | ≤ 12.5 | ≤ 12.5 | ≤ 12.5 | ≤ 12.5 | ≤ 12.5 | ≤ 12.5 | ≤ 12.5 | 156 to 158 | 21 to 40 | 0 to 20 | 0 to 20 | 0 to 20 | 21 to 40 | 21 to 40 | IC50 (indicated cell line; [8]): ≤ 12.5 µM; viability at 10 µM (viable cells in culture; [15]): 41 to 60%; viability at 10 µM (viable cells in culture; [16]): 0 to 20%; viability at 10 µM (viable cells in culture; [17]): 21 to 40%; viability at 10 µM (viable cells in culture; [18]): 0 to 20%; viability at 10 µM (viable cells in culture; [19]): 21 to 40%; viability at 10 µM (viable cells in culture; [20]): > 60% |
